Key:
[1] = system: Sprague-Dawley rats sensitized with Nippostrongylys brasiliensis; assay: antigen-induced anaphylactic hypotension, Nippostrongylus brasiliensis-sensitized rats; type: in vivo, rat; conditions: given 10 minutes prior to worm antigen (100 worm equivalents)
Description: The effect of SGP-T on antigen-induced anaphylactic hypotension was examined in Sprague-Dawley rats sensitized 5 weeks previously with the nematode parasite Nippostrongylys brasiliensis. Under pentobarbital anesthesia, worm antigen (100 worm equivalents) was injected and arterial blood pressure was followed for 1 hour.

[2] = system: rats sensitized to hen egg albumin; assay: intestinal anaphylaxis (diarrhoea, disrupted MMCs), egg albumin-sensitized rats, Example 3; type: in vivo, rat; conditions: intravenously
Text: SGP-T was also effective in preventing intestinal anaphylaxis.

[3] = system: isolated jejunal segments from egg albumin-sensitised rats; assay: antigen-induced contraction of isolated jejunal segments, Examples 3 and 6; parameters: species or system rat
Description: SGP-T, at doses as low as 6.8×10^−7M, reduced antigen induced contractions of these isolated intestinal tissues by 60% (data not shown).
Analogues and fragments of SGP-T were tested for their ability to inhibit antigen (egg albumin)-induced intestinal contractions, using isolated jejunal segments from egg albumin-sensitised rats, as described in Example 3.

[4] = system: jejunal segments from ovalbumin-sensitized rats; assay: antigen-induced jejunal segment contraction, URE/OA ratio, Example 7; parameters: species or system rat
Description: Animals and Tissue Preparation: Male Sprague-Dawley rats were sensitized to egg albumin (ovalbumin, OA) with 50 ng of Pertussis bordetella toxin as an adjuvant. Four to six weeks after sensitization, the rats were anaethetised with sodium pentobarbital and the jejunum was removed. Two cm sections of the jejunum were mounted in tissue baths under 0.75 g of isometric tension, and the tissues were allowed to equilibrate for 20 min prior to beginning the experiment.
10 μg of SGP-T or one of its analogues or fragments was added to a bath, while control tissues received the saline vehicle. Following a 10 min incubation, 100 ng of OA prepared in 0.9% saline was added. After the tissue had reached a maximal contractile response, the tissues were washed extensively to remove OA and peptide and, after the tissues had established baseline tension, 20 μg of urecholine (URE; a cholinergic-muscarinic receptor agonist) was added to determine the maximal contractile response of the tissue. The tissues were then removed from the bath, cleared of all underlying mucosa and the weight of the remaining muscle was determined.
Data Analysis: The tension (measured in grams) per gram tissue weight generated by each tissue in response to OA and URE was calculated. To normalize for differences in the ability of each tissue segment to contract in response to the muscle stimulants, the contractile response to […]. Thus, a measure of the antigen-induced contraction was expressed as the URE/OA ratio.
The data was analyzed using the one-way analysis of variance (ANOVA) and differences between groups was determined using the Student t-test for unpaired samples. The results are shown in FIGS. 7 and 8 and Tables 3 and 4.

[5] = system: neutrophil influx into carrageenin-soaked sponge in rats; assay: neutrophil migration into carrageenin-soaked sponge; type: in vivo, rat
Description: The subcutaneous implantation of a carrageenin-soaked sponge in rats is a model used to evaluate agents that modulate neutrophil chemotaxis, as carrageein is a potent chemotactic agent and the sponge serves as a collecting reservoir.
(§1) Under halothane anaesthesia the sponge was removed from its subcutaneous site and the fluid was squeezed from it into a test tube. Following centrifugation at 2,000 g for 10 min, the exudate was decanted and the remaining cells were suspended in 4 ml of 0.9% saline, and their number determined using a Coulter Counter. One ml of the remaining cell suspension was extracted for use in the superoxide assay.
(§2) Intravenous injections of SGP-T inhibited neutrophil influx into a carrageenin-soaked sponge in a dose-dependent manner (FIG. 4). When the ability of neutrophils obtained from the carrageenin-soaked sponges to generate superoxide anion was evaluated, those obtained from saline-treated rats were totally refractory to f MLP and phorbol myristate acetate (PMA).

[6] = system: neutrophils from carrageenin-soaked sponges; assay: superoxide production by neutrophils from carrageenin-soaked sponges of treated rats; type: in vivo, rat; conditions: intravenous SGP-T 4 hr. before implantation of the sponge
Description: as §1
Neutrophils (10^6) were suspended in PBS buffer of the following composition: NaCl 137 mM, KCl 2.7 mM, Na2HPO4, 8.1 mM, KH2PO4 1.47 mM, CaCl2 1.19 mM, MgCl2 0.54 mM, glucose 7.5 mM and cytochrome C 1.5 mM (Sigma Chemical Co. St. Louis, […].) incubated at 37 C. Each sample was read along with a reference sample containing 1440 units of superoxide dismutase (Sigma) in a spectrophotometer (Hitachi, U200 spectrophotometer). The rate of superoxide production in response to 10^−7M phorbol myristate acetate (PMA) or 10^−5 M N-formyl-methionyl-leucyl-phenylalanine (fMLP) was then inferred from the slope. […]
as §2

human neutrophils = assay: superoxide anion production in vitro, human neutrophils; type: cell-based; conditions: for superoxide anion production: 10^−7M PMA
Description: (§3) Neutrophils (10^6) were suspended in PBS buffer of the following composition: NaCl 137 mM, KCl 2.7 mM, Na2HPO4, 8.1 mM, KH2PO4 1.47 mM, CaCl2 1.19 mM, MgCl2 0.54 mM, glucose 7.5 mM and cytochrome C 1.5 mM (Sigma Chemical Co. St. Louis, […].) incubated at 37 C. Each sample was read along with a reference sample containing 1440 units of superoxide dismutase (Sigma) in a spectrophotometer (Hitachi, U200 spectrophotometer). The rate of superoxide production in response to 10^−7M phorbol myristate acetate (PMA) or 10^−5 M N-formyl-methionyl-leucyl-phenylalanine (fMLP) was then inferred from the slope. (Derian et al., (1996), Biochemistry 35(4): 1265–9).
(§4) Neutrophils obtained either from carrageenin-soaked sponges implanted subcutaneously in rats, or from the blood of healthy human volunteers, were preincubated with various doses of SGP-T for 30 minutes, then stimulated with 10^−7M PMA and the rate of superoxide anion production determined. At doses less than 1 μM, SGP-T inhibited superoxide anion production by both rat and human neutrophils, although the rat neutrophils were approximately 10-fold less sensitive than human neutrophils to this inhibitor effect (FIG. 6). At higher doses of the peptide(>1 μM), an enhancement of superoxide anion production was evident with human neutrophils.
(§5) At 0.001 and 0.01 μM SGP-T, O2^− production was inhibited by 15 to 20% in human neutrophils, while 10-fold higher concentrations were required for such inhibition with rat neutrophils. Much higher concentrations of SGP-T (10 and 20 μM) stimulated O2^− production by human neutrophils. Each value is presented as the mean ±SEM, and the number of experiments was between 6 and 12.

rat neutrophils = assay: superoxide anion production in vitro, rat neutrophils; type: cell-based
Description: as §3, §4, §5

[7] = system: ovalbumin-sensitized Hooded-Listar rats; assay: anaphylactic perturbation of intestinal motility, Example 9; type: in vivo, rat; conditions: intravenously at 100 μg/kg, 20 min before challenge
Description: Animals and Tissue Preparation: Male Hooded-Listar rats were sensitized to egg albumin (ovalbumin; OA). Two weeks after sensitization, the animals had electrodes implanted into the muscle of the jejunum for recording muscle electrical activity. One week later, the fasted rats received SGP-T or an analogue, either intravenously (injection via penile vein under halothane anaesthesia) or orally (via gastric tube), 20 min before challenge with OA, or bovine serum albumin as control, by intragastric administration.
The disruption of intestinal migrating myoelectric complexes (MMCs) (Scott et al., (1988), J. Physiol., v. 255, pp. G505–511), a measure of intestinal activity, and the presence of diarrhea were used as biological measurements of anaphylaxis.

NH2-Thr-Asp-Ile-Phe-Glu-Gly-Gly-COOH (H-TDIFEGG-OH) [SGP-T, submandibular gland peptide T, TDIFEGG]
protection against anaphylactic hypotension [1]: dose-dependently protected | manifestation of anaphylaxis ([2]; 100 μg/kg): totally prevented | anaphylactic reactions (diarrhoea, disruption of MMCs) ([2]; doses as low as 10 μg/kg): significantly attenuated | Biological Activity = inhibition of antigen-induced jejunal contraction by test peptide [3]: +++ (+++ = highest inhibition (~60%)) | reduction of antigen induced contractions of isolated intestinal tissues ([3]; doses as low as 6.8×10^−7M): 60% | reduction of the anaphylactic reaction ([4]; 10 μg of peptide): more than 50% | URE/OA ([4]; Table 4, 10 μg peptide, 100 ng OA, 20 μg urecholine, saline 5.7 ± 1.0): 13.9 ± 5.6 | neutrophil influx into a carrageenin-soaked sponge ([5]; intravenous injections): inhibited | inhibition of neutrophil migration ([5]; rat, in vivo): approximately 50% | superoxide generation in response to fMLP and PMA by sponge neutrophils [6]: able to generate substantial amounts of superoxide | O2− production (human neutrophils; 10 and 20 μM): stimulated | superoxide anion production (human neutrophils; doses less than 1 μM): inhibited | superoxide anion production (human neutrophils; higher doses (>1 μM)): enhancement | superoxide anion production (rat neutrophils; doses less than 1 μM, 10^−7M PMA): inhibited | sensitivity of rat neutrophils relative to human neutrophils (less sensitive) (rat neutrophils; inhibition of superoxide anion production): approximately 10 fold | higher concentrations required for 15 to 20% inhibition versus human neutrophils (rat neutrophils; relative to 0.001 and 0.01 μM in human neutrophils): 10 fold | intestinal anaphylaxis induced by OA [7]: prevented or reduced
